In BindingDB's records for doi:10.1021/jm00101a030 (University of Michigan, 1992):
pKi: −log10 of the molar value.

Assay: Binding affinity against Opioid receptor delta 1 in guinea pig brain homogenates, using [3H]DPDPE as radioligand.

Q: With CC1(C)SSC[C@@H](NC(=O)[C@@H]2NCC[C@@H]2c2ccc(O)cc2)C(=O)N[C@@H](Cc2ccccc2)C(=O)N[C@@H]1C(=O)O as the compound, how does the pKi read?
A: 7.08

Q: With CC1(C)SSC[C@@H](NC(=O)[C@H]2NCC[C@@H]2c2ccc(O)cc2)C(=O)N[C@@H](Cc2ccccc2)C(=O)N[C@@H]1C(=O)O as the compound, how does the pKi read?
A: 9.18
